Patent publication US8410049B2, “Methods and kits for preventing hypoglycemia” (Cebix, priority 2009, dated 2013)

Tests used:
[1] = C-peptide plasma levels, time-resolved fluoroimmunoassay; type: in vivo, human; conditions: for Increase in pre-dosing morning C-peptide plasma level vs baseline: 4.5 months (visit 3)
Procedure: The sampling of C-peptide in plasma at visits 2 and 4 coincided with the clinical visit and the time between the most recent administration of the trial drug and sampling varied between patients. Thereby, the result of C-peptide concentrations in plasma was less suitable for pharmacokinetic evaluations, but the results contributed to the assessment of treatment compliance. C-peptide plasma levels were measured at baseline, and after 3 and 6 months of treatment. Analysis was performed by the Department of Clinical Chemistry Karolinska University Hospital, Solna using a time-resolved fluoroimmunoassay (AutoDelfia, Wallac Oy, Turku, Finland). […] The plasma levels of C-peptide attained in this study ranged from about 0.2 nM to a maximum of about 6 nM in the high dose group.

[2] = system: type 1 diabetes patients with peripheral neuropathy; conditions: in vivo

CC(C)C[C@H](NC(=O)[C@H](C)NC(=O)[C@H](CC(C)C)NC(=O)[C@@H]1CCCN1C(=O)[C@H](CCC(N)=O)NC(=O)[C@H](CC(C)C)NC(=O)[C@H](CO)NC(=O)CNC(=O)[C@H](C)NC(=O)CNC(=O)[C@@H]1CCCN1C(=O)CNC(=O)CNC(=O)CNC(=O)[C@H](CC(C)C)NC(=O)[C@H](CCC(=O)O)NC(=O)[C@@H](NC(=O)[C@H](CCC(N)=O)NC(=O)CNC(=O)[C@@H](NC(=O)[C@H](CCC(N)=O)NC(=O)[C@H](CC(C)C)NC(=O)[C@H](CC(=O)O)NC(=O)[C@H](CCC(=O)O)NC(=O)[C@H](C)NC(=O)[C@@H](N)CCC(=O)O)C(C)C)C(C)C)C(=O)N[C@@H](CCC(=O)O)C(=O)NCC(=O)N[C@@H](CO)C(=O)N[C@@H](CC(C)C)C(=O)N[C@@H](CCC(N)=O)C(=O)O [C-peptide, Recombinant human C-peptide]
well tolerated: Tolerability [2]
M (1): AEs of moderate intensity (M): Abdomnial pain [2] | AEs of moderate intensity (M): Arthralgia [2] | AEs of moderate intensity (M): Arthritis [2] | AEs of moderate intensity (M): Arthropathy [2] | AEs of moderate intensity (M): Back pain [2] | AEs of moderate intensity (M): Bronchitis [2] | AEs of moderate intensity (M): Carpal tunnel syndrome [2] | AEs of moderate intensity (M): Celiac disease [2] | AEs of moderate intensity (M): Dacryocanaliculitis [2] | AEs of moderate intensity (M): Depression [2] | AEs of moderate intensity (M): Dizziness [2] | AEs of moderate intensity (M): Epicondylitis [2] | AEs of moderate intensity (M): Fatigue [2] | AEs of moderate intensity (M): Gastritis [2] | AEs of moderate intensity (M): Hyperlipidemia [2] | AEs of moderate intensity (M): Hypoglycemic coma [2] | AEs of moderate intensity (M): Hypotension [2] | AEs of moderate intensity (M): Knee injury [2] | AEs of moderate intensity (M): Limb operation [2] | AEs of moderate intensity (M): Migraine [2] | AEs of moderate intensity (M): Muscle cramp [2] | AEs of moderate intensity (M): Nausea [2] | AEs of moderate intensity (M): Otitis [2] | AEs of moderate intensity (M): Paraesthesia [2] | AEs of moderate intensity (M): Pharyngitis [2] | AEs of moderate intensity (M): Pyrexia [2] | AEs of moderate intensity (M): Restless legs syndrome [2] | AEs of moderate intensity (M): ST elevation (ECG) [2] | AEs of moderate intensity (M): Sciatica [2] | AEs of moderate intensity (M): Stress disorder [2] | AEs of moderate intensity (M): Tendinous [2] | AEs of moderate intensity (M): Tonsillitis [2] | AEs of moderate intensity (M): Vision decreased [2] | AEs of moderate intensity (M): Vitreous hemorrhage [2]
0.13 ± 0.083 nmol/L: Increase in pre-dosing morning C-peptide plasma level vs baseline ([1]; High-dose C-peptide, n=4)
S (2): AEs of severe intensity (S): Hypoglycemic coma [2]
likely no significant accumulation: Accumulation following repeated C-peptide dosing ([1]; dose ranges of the study, 4.5 months)
0.045 ± 0.092 nmol/L: Increase in pre-dosing morning C-peptide plasma level vs baseline ([1]; Low-dose C-peptide, n=8)
3: AEs of any severity: Abdominal pain [2] | AEs of any severity: Arthralgia [2] | AEs of any severity: Feeling abnormal [2] | AEs of any severity: Pyrexia [2]
No local reactions: Local reactions ([2]; sc)
S (1): AEs of severe intensity (S): Diarrhea [2] | AEs of severe intensity (S): Hepatic enzyme increase [2] | AEs of severe intensity (S): Hyperglycemia [2] | AEs of severe intensity (S): Pharyngitis [2] | AEs of severe intensity (S): Pregnancy [2]
0.2 to 6 nM: level at time molar ([1]; human, plasma, sc, during treatment, maximum in the high dose group, read-out: Plasma levels of C-peptide attained)
M (2): AEs of moderate intensity (M): Myalgia [2] | AEs of moderate intensity (M): Pain in extremity [2]
2 (2): AEs of any severity: Hyperthermeasthesia [2] | AEs possibly related to study drug: Hyperthermeasthesia [2]
2: AEs of any severity: Back pain [2] | AEs of any severity: Blister [2] | AEs of any severity: Candidiasis [2] | AEs of any severity: Chest pain [2] | AEs of any severity: Exostosis [2] | AEs of any severity: Fatigue [2] | AEs of any severity: Hepatic enzyme increase [2] | AEs of any severity: Hypoaesthesia [2] | AEs of any severity: Hypoglycemic coma [2] | AEs of any severity: Otitis [2] | AEs of any severity: Pharyngitis [2] | AEs of any severity: Pregnancy [2] | AEs of any severity: Reflux gastritis [2] | AEs of any severity: Rib fracture/injury [2] | AEs of any severity: Sinusitis [2] | AEs of any severity: Tonsilitis [2] | AEs of any severity: Tooth infection [2] | Number of AEs: Hypoglycemic coma [2]
no adverse drug reactions: Adverse drug reactions or significant changes in safety variables [2]
1 (1): AEs of any severity: Hyperaesthesia [2] | AEs of any severity: Injection site burning [2] | AEs possibly related to study drug: Hyperaesthesia [2] | AEs possibly related to study drug: Hyperglycemia [2] | AEs possibly related to study drug: Injection site burning [2] | Number of AEs probably/possibly related to study drug: Hyperglycemia [2]
1: AEs of any severity: Allergic urticaria [2] | AEs of any severity: Anemia [2] | AEs of any severity: Aptyalism [2] | AEs of any severity: Arterial disorder [2] | AEs of any severity: Arthritis [2] | AEs of any severity: Asthma [2] | AEs of any severity: Bronchitis [2] | AEs of any severity: Burning sensation [2] | AEs of any severity: Cardiac arrhythmia [2] | AEs of any severity: Cardiac murmur [2] | AEs of any severity: Carpal tunnel syndrome [2] | AEs of any severity: Celiac disease [2] | AEs of any severity: Cough [2] | AEs of any severity: Dacryocanaliculitis [2] | AEs of any severity: Depression [2] | AEs of any severity: Dermatitis allergic [2] | AEs of any severity: Dry skin [2] | AEs of any severity: Epicondylitis [2] | AEs of any severity: Epistaxis [2] | AEs of any severity: Eye injury [2] | AEs of any severity: Eye operation [2] | AEs of any severity: Fibroma [2] | AEs of any severity: Flatulence [2] | AEs of any severity: Food poisoning [2] | AEs of any severity: Gastritis [2] | AEs of any severity: Hematuria [2] | AEs of any severity: Hemorrhage [2] | AEs of any severity: Hypercalcemia [2] | AEs of any severity: Hyperlipidemia [2] | AEs of any severity: Hypertension [2] | AEs of any severity: Hypotension [2] | AEs of any severity: Joint sprain ankle [2] | AEs of any severity: Knee injury [2] | AEs of any severity: Leucopenia [2] | AEs of any severity: Limb operation [2] | AEs of any severity: Lymph node enlargement [2] | AEs of any severity: Macular edema [2] | AEs of any severity: Menopausal disorder [2] | AEs of any severity: Menstration irregular [2] | AEs of any severity: Migraine [2] | AEs of any severity: Multiple sclerosis [2] | AEs of any severity: Muscle cramp [2] | AEs of any severity: Muscle spasm [2] | AEs of any severity: Muscular atrophy [2] | AEs of any severity: Musculoskeletal chest [2] | AEs of any severity: Pain in neck [2] | AEs of any severity: Pain in shoulder [2] | AEs of any severity: Panic disorder [2] | AEs of any severity: Restless legs syndrome [2] | AEs of any severity: Rheumarthritis [2] | AEs of any severity: ST elevation (ECG) [2] | AEs of any severity: Scar [2] | AEs of any severity: Sciatica [2] | AEs of any severity: Season allergy [2] | AEs of any severity: Sensory loss [2] | AEs of any severity: Sepsis [2] | AEs of any severity: Skin infection [2] | AEs of any severity: Stress disorder [2] | AEs of any severity: Sweating increased [2] | AEs of any severity: Synovial disorder [2] | AEs of any severity: Tachycardia (stress) [2] | AEs of any severity: Tendinitis [2] | AEs of any severity: Tendinous contracture [2] | AEs of any severity: Tendosynovitis stenosans [2] | AEs of any severity: Tooth extraction [2] | AEs of any severity: Tooth injury [2] | AEs of any severity: Torticollis [2] | AEs of any severity: Upper respiratory tract infection [2] | AEs of any severity: Vertigo [2] | AEs of any severity: Vision decreased [2] | AEs of any severity: Vitamin B12 deficiency [2] | AEs of any severity: Vitreous hemorrhage [2] | AEs possibly related to study drug: Hepatic enzyme increase [2] | AEs possibly related to study drug: Hypoglycemia [2] | AEs possibly related to study drug: Pain in extremity [2] | Number of AEs probably/possibly related to study drug: Hypoglycemia [2]
Two SAEs: Serious adverse events (SAEs) [2]
M (3): AEs of moderate intensity (M): Feeling abnormal [2] | AEs of moderate intensity (M): Gastroenteritis [2]
M (1); S (1): AEs of moderate intensity (M): Rib fracture/injury [2] | AEs of severe intensity (S): Hypoglycemia [2] | AEs of severe intensity (S): Rib fracture/injury [2]
23: AEs of any severity: Nasopharyngitis [2]
0: Number of AEs: Blood glucose fluctuation [2] | Number of AEs: Hypothyroidism [2] | Number of AEs: Increased appetite [2]
4: Occurrences of hypoglycemic coma [2]
